Laboratory results: patent US9006487B2, “Amine-containing lipids and uses thereof” (Massachusetts Institute of Technology, priority 2005, dated 2015)

Experiment: DNA delivery: raw luciferase expression (relative light units) of best-transfecting lipids
Assay type: cell-based
Details: lipid/DNA 2.5 w/w; 300 ng of DNA per well
Procedure: Raw values for luciferase expression (relative lights units) of best-transfecting lipids at lipid/DNA (w/w) ratios listed. 300 ng of DNA was added per well.

| Structure (SMILES) | Raw values for luciferase expression [relative lights units] |
| --- | --- |
| CCCCCCCCCCCCCCNC(=O)CCN(CCCO)CCC(=O)NCCCCCCCCCCCCCC [NF20] | 1814886 |
| CCCCCCCCCCCCCCNC(=O)CCN(CCC(=O)NCCCCCCCCCCCCCC)C(CO)CO [NF25] | 2473702 |
| CCCCCCCCCCCCCCNC(=O)CCN(C)CCCN(C)CCC(=O)NCCCCCCCCCCCCCC [NF63] | 1141469 |
| CCCCCCCCCCCCCCNC(=O)CCN(CCCN1CCOCC1)CCC(=O)NCCCCCCCCCCCCCC [NF91] | 1993690 |
| CCCCCCCCCCCCCCCNC(=O)CCN(CC)CCN(CC)CCC(=O)NCCCCCCCCCCCCCCC [NG61] | 1452027 |
| CCCCCCCCCCCCCCCNC(=O)CCN(CCC(=O)NCCCCCCCCCCCCCCC)CCC1CCCN1C (centres unmarked) [NG77] | 972002 |
| CCCCCCCCCCCCCCCNC(=O)CCN(CCC(=O)NCCCCCCCCCCCCCCC)CCN(CCO)CCO [NG86] | 1357355 |

Further lines, results first:

| Raw values for luciferase expression [relative lights units] | Structure (SMILES) |
| --- | --- |
| 823764 | CCCCCCCCCCCCCCCNC(=O)CCN(CCCN(CCO)CCO)CCC(=O)NCCCCCCCCCCCCCCC [NG87] |
| 1443678 | CCCCCCCCCCCCCCCCNC(=O)CCN(CCN(CCC(=O)NCCCCCCCCCCCCCCCC)C(C)C)C(C)C [NP62] |
| 1180418 | CCCCCCCCCCCCCCCCNC(=O)CCN(C)CCCN(C)CCC(=O)NCCCCCCCCCCCCCCCC [NP63] |

Same assay, conditions: lipid/DNA 5 w/w; 300 ng of DNA per well

| Structure (SMILES) | Raw values for luciferase expression [relative lights units] |
| --- | --- |
| CCCCCCCCCCCCCCNC(=O)CCN(CCCO)CCC(=O)NCCCCCCCCCCCCCC [NF20] | 1801431 |
| CCCCCCCCCCCCCCNC(=O)CCN(CCC(=O)NCCCCCCCCCCCCCC)C(CO)CO [NF25] | 1366194 |
| CCCCCCCCCCCCCCNC(=O)CCN(C)CCCN(C)CCC(=O)NCCCCCCCCCCCCCC [NF63] | 865897 |
| CCCCCCCCCCCCCCNC(=O)CCN(CCCN1CCOCC1)CCC(=O)NCCCCCCCCCCCCCC [NF91] | 1670695 |
| CCCCCCCCCCCCCCCNC(=O)CCN(CC)CCN(CC)CCC(=O)NCCCCCCCCCCCCCCC [NG61] | 765795 |
| CCCCCCCCCCCCCCCNC(=O)CCN(CCC(=O)NCCCCCCCCCCCCCCC)CCC1CCCN1C (centres unmarked) [NG77] | 1184771 |
| CCCCCCCCCCCCCCCNC(=O)CCN(CCC(=O)NCCCCCCCCCCCCCCC)CCN(CCO)CCO [NG86] | 1521687 |

The remaining lines, values ahead:

| Raw values for luciferase expression [relative lights units] | Structure (SMILES) |
| --- | --- |
| 1005875 | CCCCCCCCCCCCCCCNC(=O)CCN(CCCN(CCO)CCO)CCC(=O)NCCCCCCCCCCCCCCC [NG87] |
| 33188 | CCCCCCCCCCCCCCCCNC(=O)CCN(CCN(CCC(=O)NCCCCCCCCCCCCCCCC)C(C)C)C(C)C [NP62] |
| 1543275 | CCCCCCCCCCCCCCCCNC(=O)CCN(C)CCCN(C)CCC(=O)NCCCCCCCCCCCCCCCC [NP63] |

Same assay, conditions: lipid/DNA 10 w/w; 300 ng of DNA per well

| Structure (SMILES) | Raw values for luciferase expression [relative lights units] |
| --- | --- |
| CCCCCCCCCCCCCCNC(=O)CCN(C)CCCN(C)CCC(=O)NCCCCCCCCCCCCCC [NF63] | 3031718 |
| CCCCCCCCCCCCCCCNC(=O)CCN(CCC(=O)NCCCCCCCCCCCCCCC)CCN(CCO)CCO [NG86] | 1513703 |

Other lines, results leading:

| Raw values for luciferase expression [relative lights units] | Structure (SMILES) |
| --- | --- |
| 834849 | CCCCCCCCCCCCCCCNC(=O)CCN(C)CCN(CCC(=O)NCCCCCCCCCCCCCCC)CCC(=O)NCCCCCCCCCCCCCCC [NG95] |
| 1388102 | CCCCCCCCCCCCCCCCNC(=O)CCN(C)CCCN(C)CCC(=O)NCCCCCCCCCCCCCCCC [NP63] |
| 595340 | CCCCCCCCCCCCCCCCNC(=O)CCN(CCC(=O)NCCCCCCCCCCCCCCCC)CCN(CCO)CCO [NP86] |
| 1207376 | CCCCCCCCCCCCCCCCNC(=O)CCN(CCCN(CCO)CCO)CCC(=O)NCCCCCCCCCCCCCCCC [NP87] |

Same assay, conditions: lipid/DNA 15 w/w; 300 ng of DNA per well

| Structure (SMILES) | Raw values for luciferase expression [relative lights units] |
| --- | --- |
| CCCCCCCCCCCCCCNC(=O)CCN(C)CCCN(C)CCC(=O)NCCCCCCCCCCCCCC [NF63] | 1138429 |
| CCCCCCCCCCCCCCCNC(=O)CCN(CCC(=O)NCCCCCCCCCCCCCCC)CCN(CCO)CCO [NG86] | 1223360 |

Continued, values first:

| Raw values for luciferase expression [relative lights units] | Structure (SMILES) |
| --- | --- |
| 1208120 | CCCCCCCCCCCCCCCNC(=O)CCN(C)CCN(CCC(=O)NCCCCCCCCCCCCCCC)CCC(=O)NCCCCCCCCCCCCCCC [NG95] |
| 798342 | CCCCCCCCCCCCCCCCNC(=O)CCN(C)CCCN(C)CCC(=O)NCCCCCCCCCCCCCCCC [NP63] |
| 1323915 | CCCCCCCCCCCCCCCCNC(=O)CCN(CCC(=O)NCCCCCCCCCCCCCCCC)CCN(CCO)CCO [NP86] |
| 1192838 | CCCCCCCCCCCCCCCCNC(=O)CCN(CCCN(CCO)CCO)CCC(=O)NCCCCCCCCCCCCCCCC [NP87] |
